Like-named read-outs stand apart in the source and are kept apart here.

One assay addresses CHK2 (Homo sapiens, UniProt O96017). Description: Radioactive filter binding kinase assay, CHK2. In kind it is biochemical.
A further assay deals with VEGFR1 (Homo sapiens, UniProt P17948). Nature of the assay: Radioactive filter binding kinase assay, VEGFR1. The format is biochemical.
Assay [1] relates to HL-60 cells. Nature of the assay: Annexin V-FITC/propidium iodide labeling, confocal imaging. In kind it is cell-based, Human. Conditions: HL-60, 5 and 10 μmol/L, 48 h.
Assay [2] concerns HL-60 cells. Nature of the assay: Cell cycle analysis by flow cytometry. The format is cell-based, Human. (In general: In flow cytometry, cells or beads pass a laser one at a time.)
For a further assay, the system named is MOLT-4 cells. As to conditions: MOLT-4 cells ref 16; cited from earlier work.
The subject of assay [3] is HL-60 cells. Description: Drug accumulation assay. In kind it is cell-based, Human. Conditions: HL-60, 2 h incubation, emission 446 nm.
In a further assay the target is MNK2 (Homo sapiens, UniProt Q9HBH9). Description: Radioactive filter binding kinase assay, MNK2. Conditions: read-out: percent inhibition MNK2.
In the next assay the test system is caspase-3. Nature of the assay: Caspase-3 colorimetric activity assay. The format is cell-based, Human. As to conditions: HL-60, 10 μmol/L, 48 h.
The next assay concerns the target Aurora B (Homo sapiens, UniProt Q96GD4). Description: Radioactive filter binding kinase assay, Aurora B. Conditions: read-out: percent inhibition Aurora B.
The test system of assay [4] is HL-60 cells. Description: Mitochondrial membrane potential measurement. In kind it is cell-based, Human. Conditions: HL-60, 10 μmol/L, JC-1, from 6 h.
For assay [5], the system named is HL-60 cells. Nature of the assay: LDH release assay. The format is cell-based, Human.
Where [6] appears, read: read-out: IC50 CHK2, mean±SD (n=3).
[7] abbreviates: read-out: IC50 VEGFR1, mean±SD (n=3).

Sequence of CHK2 (O96017 whole entry, species assumed): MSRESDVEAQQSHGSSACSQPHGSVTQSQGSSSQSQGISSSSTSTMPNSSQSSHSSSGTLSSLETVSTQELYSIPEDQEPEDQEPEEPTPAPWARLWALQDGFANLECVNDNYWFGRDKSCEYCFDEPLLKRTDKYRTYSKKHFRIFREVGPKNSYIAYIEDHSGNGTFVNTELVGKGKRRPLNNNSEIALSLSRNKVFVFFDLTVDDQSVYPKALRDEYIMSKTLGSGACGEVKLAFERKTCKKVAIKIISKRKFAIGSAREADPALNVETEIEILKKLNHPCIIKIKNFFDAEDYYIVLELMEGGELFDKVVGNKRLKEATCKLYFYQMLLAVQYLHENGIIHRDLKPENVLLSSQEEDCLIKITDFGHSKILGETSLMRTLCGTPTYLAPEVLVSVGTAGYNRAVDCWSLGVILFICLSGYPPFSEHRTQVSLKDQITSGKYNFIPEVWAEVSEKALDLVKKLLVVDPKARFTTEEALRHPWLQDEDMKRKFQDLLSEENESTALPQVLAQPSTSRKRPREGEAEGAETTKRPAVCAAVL
Sequence of VEGFR1 (P17948 27-1338, species assumed): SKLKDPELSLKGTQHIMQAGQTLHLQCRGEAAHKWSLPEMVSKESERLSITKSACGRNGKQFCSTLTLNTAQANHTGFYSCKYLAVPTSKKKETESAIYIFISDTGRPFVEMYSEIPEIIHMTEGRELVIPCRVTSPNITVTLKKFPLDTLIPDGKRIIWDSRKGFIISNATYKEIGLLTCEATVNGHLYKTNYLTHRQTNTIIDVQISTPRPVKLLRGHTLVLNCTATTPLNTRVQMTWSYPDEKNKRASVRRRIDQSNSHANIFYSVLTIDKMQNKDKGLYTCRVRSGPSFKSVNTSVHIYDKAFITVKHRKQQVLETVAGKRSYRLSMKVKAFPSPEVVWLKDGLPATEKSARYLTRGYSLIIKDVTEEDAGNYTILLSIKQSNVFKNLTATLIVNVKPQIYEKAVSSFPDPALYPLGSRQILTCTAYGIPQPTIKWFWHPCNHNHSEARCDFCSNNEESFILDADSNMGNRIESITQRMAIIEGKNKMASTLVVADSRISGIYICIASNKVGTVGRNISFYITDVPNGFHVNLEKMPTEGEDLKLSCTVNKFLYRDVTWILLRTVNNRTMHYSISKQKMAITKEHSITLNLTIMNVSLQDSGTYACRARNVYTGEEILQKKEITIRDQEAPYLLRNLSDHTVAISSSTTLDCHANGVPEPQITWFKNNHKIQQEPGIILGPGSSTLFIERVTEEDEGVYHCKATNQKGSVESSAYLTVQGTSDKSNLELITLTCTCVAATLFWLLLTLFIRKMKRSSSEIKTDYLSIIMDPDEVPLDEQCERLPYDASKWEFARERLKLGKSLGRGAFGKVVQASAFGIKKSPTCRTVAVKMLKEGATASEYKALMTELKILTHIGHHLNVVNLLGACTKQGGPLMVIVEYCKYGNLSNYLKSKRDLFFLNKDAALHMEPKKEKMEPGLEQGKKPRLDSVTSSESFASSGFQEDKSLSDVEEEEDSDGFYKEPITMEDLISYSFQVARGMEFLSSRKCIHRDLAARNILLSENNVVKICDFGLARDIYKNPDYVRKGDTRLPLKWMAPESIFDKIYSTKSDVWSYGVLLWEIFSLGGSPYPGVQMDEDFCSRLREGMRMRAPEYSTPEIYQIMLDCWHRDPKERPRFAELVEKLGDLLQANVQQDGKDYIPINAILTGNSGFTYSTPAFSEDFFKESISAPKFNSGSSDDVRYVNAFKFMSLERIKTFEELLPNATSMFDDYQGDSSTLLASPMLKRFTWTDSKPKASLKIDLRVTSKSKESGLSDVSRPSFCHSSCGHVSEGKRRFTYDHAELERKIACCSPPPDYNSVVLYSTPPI
Sequence of MNK2 (Q9HBH9 whole entry, species assumed): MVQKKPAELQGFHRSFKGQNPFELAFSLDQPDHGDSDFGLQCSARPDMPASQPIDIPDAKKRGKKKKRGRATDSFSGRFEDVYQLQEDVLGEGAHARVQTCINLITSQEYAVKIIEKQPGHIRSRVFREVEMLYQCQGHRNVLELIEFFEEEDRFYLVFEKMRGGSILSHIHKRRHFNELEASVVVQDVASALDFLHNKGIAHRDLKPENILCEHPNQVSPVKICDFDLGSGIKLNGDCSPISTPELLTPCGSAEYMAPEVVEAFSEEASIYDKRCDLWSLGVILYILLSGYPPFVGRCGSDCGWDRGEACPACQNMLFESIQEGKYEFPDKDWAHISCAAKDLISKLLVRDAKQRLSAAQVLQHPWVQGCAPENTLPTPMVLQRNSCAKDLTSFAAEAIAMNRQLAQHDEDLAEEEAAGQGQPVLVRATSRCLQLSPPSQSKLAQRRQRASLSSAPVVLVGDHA
Sequence of Aurora B (Q96GD4 whole entry): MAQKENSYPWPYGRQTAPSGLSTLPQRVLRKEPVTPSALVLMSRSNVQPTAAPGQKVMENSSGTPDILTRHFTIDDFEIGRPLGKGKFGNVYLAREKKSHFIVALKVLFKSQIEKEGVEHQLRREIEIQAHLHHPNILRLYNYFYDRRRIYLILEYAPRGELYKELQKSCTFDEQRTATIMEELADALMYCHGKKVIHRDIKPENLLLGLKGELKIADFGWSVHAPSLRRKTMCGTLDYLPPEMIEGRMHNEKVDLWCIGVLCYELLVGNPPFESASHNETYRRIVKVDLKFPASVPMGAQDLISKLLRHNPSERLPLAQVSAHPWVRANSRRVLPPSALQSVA

For the compound `Oc1c2ccccc2c2c3c(cccc13)N=N2` [SP600125], the IC50 (usually the concentration at which inhibition is half-maximal) at CHK2 came to 304 ± 94 nM; on VEGFR1, 335 ± 74 nM.

`O=c1c(O)c(-c2cc(O)c(O)c(O)c2)oc2cc(O)cc(O)c12` [Myricetin]: the IC50 at VEGFR1 is 779 ± 173 nM.

`CCCCNc1ncnc2c1sc1nc3ccccc3cc12` [BPTQ, 4-butylaminopyrimido[4′,5′:4,5]thieno(2,3-b)quinoline]: in the assay on HL-60 cells [1], the “Annexin V-FITC / propidium iodide staining (apoptosis)” value is “confirming the induction of apoptosis”. For the same compound, the “Sub G0/G1 cells” value with HL-60 cells [2] (HL-60, 10 μmol/L, 48 h) came out at 47%. Also, the Cell cycle arrest entry in the assay on HL-60 cells [2] (HL-60, 48 h) is “did not induce any cell cycle arrest”. Besides, the Cell cycle effect result with MOLT-4 cells is reported as “cell cycle arrest was observed”. For the same compound, the Intracellular drug uptake entry in the assay with HL-60 cells [3] is reported as “dose dependent increase in the intracellular drug uptake”. Further, the activity at 1 µM at MNK2 amounted to 79%; at Aurora B, 74%; on CHK2 (read-out: percent inhibition CHK2) it was 40%; on VEGFR1 (read-out: percent inhibition VEGFR1) it was 44%. Moreover, the “Increase in caspase-3 activity relative to control” value in the assay with caspase-3 is listed as “about 2 fold”. Moreover, in the assay on HL-60 cells [4], the “Mitochondrial membrane potential (ΔΨm)” value is listed as “striking fall in the membrane potential”. Also, the LDH release result was “did not induce LDH release” in the assay with HL-60 cells [5] (HL-60, 10 μmol/L); “increased the release of LDH” in the assay with HL-60 cells [5] (HL-60, 50 μmol/L); “increased the release of LDH” with HL-60 cells [5] (HL-60, 100 μmol/L).

For `COC(=O)[C@@]1(O)C[C@H]2O[C@]1(C)n1c3ccccc3c3c4c(c5c6ccccc6n2c5c31)C(=O)NC4` [K252a], the IC50 was determined as 23 ± 5 nM on CHK2 (setting [6]) and 13 ± 2 nM at VEGFR1 (setting [7]).

Regarding `Cn1cc(C2=C(c3cn(CCCSC(=N)N)c4ccccc34)C(=O)NC2=O)c2ccccc21` [Ro318220], the IC50 at CHK2 (setting [6]) was determined as 1070 ± 210 nM; at VEGFR1 (setting [7]), 120 ± 14 nM.

For the compound `O=C1Nc2ccccc2/C1=C1/Nc2ccccc2C1=O` [Indirubin], the values for the IC50 at CHK2 and at VEGFR1 were 81 ± 19 nM and 42 ± 12 nM, respectively.
